In ChEMBL document CHEMBL1201862, “PubChem BioAssay data set” (2004):
The source made the active and inactive calls.

Tests used:
[1] = Luminescence Cell-Based Dose Response HTS to Identify Inhibitors of 5'UTR Stem-Loop Driven Prion Protein mRNA Translation in H4 Neuroglioblastoma Cells. [Related pubchem assays: 1827 (Project Summary), 1813 (Primary HTS)]; format: functional
[2] = microbe, parasite or virus in culture; format: functional; conditions: Mycobacterium tuberculosis
[3] = control 3'UTR Renilla luciferase suppression, dose response, counter-screen for Shn3 inhibitor project, cell-based, Clone20-Shn3RL, cherry-picked (AID 624133); format: functional
HEK293 = assay: inhibitors of LMP1-driven NF-kB reporter, dose response, cell-based, HEK293, luciferase, cherry-pick (AID 588343); format: functional; conditions: Homo sapiens
[4] = Shn3 3'UTR reporter inhibitors, dose response, cell-based, Clone20 osteoblasts, firefly luciferase, cherry-picked (AID 624132); format: functional;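 note: firefly luciferase luminescence from reporter carrying the Shn3 3'UTR in osteoblasts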
[5] = Luminescence Cell-Based Dose Retest to Confirm Inhibitors of Cancer Stem Cells. [Related pubchem assays (depositor defined):AID2717, AID2721]; format: functional; conditions: Homo sapiens
[6] = inhibitors of firefly luciferase expression or activity, dose response, H4 neuroglioma cells, luminescence (AID 1990); format: functional, cell-based
[7] = inhibitors of SNCA 5'UTR-driven reporter translation, confirmation, H4 neuroglioma cells, luminescence (AID 1988); format: functional, cell-based
[8] = cytotoxicity toward NIH3T3 fibroblasts, dose response, counter-screen, cell-based, ATP luminescence, mouse fibroblasts (AID 2010); format: functional;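 note: cells exposed to compound for about 90 hours before reading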
[9] = HepG2 cell cytotoxicity, dose response, cytotoxicity control for Shn3 inhibitor project, CellTiter-Glo, cherry-picked (AID 624134); format: functional, cell-based
INS1 = assay: beta cell apoptosis inhibitors, cytokine rescue, dose response, luminescence, retest (AID 449756); format: functional, cell-based; conditions: Rattus norvegicus;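 note: cell death triggered by IL-1 beta plus TNF-alpha plus IFN-gamma mixture; protective hits raise ATP signal compared with cytokine alone wells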
[10] = test system: Streptococcus sp. 'group A'; assay: growth inhibition of control SK(-) GAS strain, dose response, counter-screen for streptokinase expression inhibitor project, luminescence, kanamycin, BacTiterGlo, confirmation (AID 1900); format: functional, organism-based
Streptococcus = assay: Group A Streptococcus viability loss, dose response, counter-screen for streptokinase expression inhibitor project, luminescence, BacTiterGlo (AID 1915); format: functional, organism-based;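 note: potency for reduction of bacterial viability or growth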
[11] = molecular target: Latent membrane protein 1 (Human herpesvirus 4 (strain B95-8), UniProt P03230); assay: TES1-eGFP NF-kB reporter inhibition versus Tet-On dsRED, dose response, selectivity assay for LMP1 NF-kB inhibitor project, imaging, HEK293T, dual-color eGFP/dsRED, cherry-picks (AID 588398); format: functional, cell-based
[12] = inhibitors of intracellular T. cruzi replication, confirmation, NIH3T3 host cells, beta-gal luminescence (AID 2044); format: functional, cell-based;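 note: intracellular parasites grown in NIH/3T3 mouse fibroblasts as host cells; luminescent beta-galactosidase reporter signal from transgenic T. cruzi replicating inside host cells; inhibitors lower the luminescence signal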
CHO = assay: cytotoxicity in TLR9-MyD88 CHO cells, dose response, cytotoxicity control for TLR9-MyD88 binding inhibitor project, cell-based, luminescence (AID 588339); format: functional, hamster; conditions: Cricetulus griseus;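 note: CHO cells stably coexpressing TLR9 and MyD88 fusions from primary screen; compound exposure lasted 48 hours before viability readout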
Beta Lactamase = Beta Lactamase (Pseudomonas aeruginosa, UniProt Q932Y6); assay: beta-lactamase reporter inhibitor potency, dose response, artefact control for TLR9-MyD88 binding inhibitor project, BLA reporter cells, FRET fluorescence (AID 588341); format: cell-based;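 note: cell based assay in CHO-K1 cells stably expressing beta-lactamase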
[13] = molecular target: T1, Sentrin-specific protease 8 (Homo sapiens, UniProt Q96LD8); assay: SENP8 protease inhibitors, SAR follow-up, biochemical, luminescence (AID 504501); format: functional
T1 sequence (Q96LD8 whole entry): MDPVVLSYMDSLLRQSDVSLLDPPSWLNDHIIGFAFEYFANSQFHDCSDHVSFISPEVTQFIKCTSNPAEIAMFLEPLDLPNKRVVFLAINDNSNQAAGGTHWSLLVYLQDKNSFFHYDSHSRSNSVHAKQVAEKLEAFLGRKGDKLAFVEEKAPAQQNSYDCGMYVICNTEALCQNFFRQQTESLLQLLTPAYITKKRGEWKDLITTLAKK

Caspase-3 [14] = molecular target: T2, Caspase-3 (Homo sapiens, UniProt P42574); assay: SAR Analysis of small molecule inhibitors of Sentrin-specific proteases (SENPs) using a Caspase-3 Selectivity assay. [Related pubchem assays (depositor defined):AID2540, AID2599, AID434973, AID489001]; format: functional
T2 sequence (P42574 whole entry): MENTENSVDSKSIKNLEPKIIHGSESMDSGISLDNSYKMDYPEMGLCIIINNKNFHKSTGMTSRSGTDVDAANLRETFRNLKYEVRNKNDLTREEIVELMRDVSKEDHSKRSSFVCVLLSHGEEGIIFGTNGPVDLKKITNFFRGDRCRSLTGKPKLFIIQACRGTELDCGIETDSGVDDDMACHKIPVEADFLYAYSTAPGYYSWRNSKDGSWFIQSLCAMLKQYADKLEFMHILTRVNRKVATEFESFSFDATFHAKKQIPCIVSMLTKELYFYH

[15] = molecular target: T3, Sentrin-specific protease 6 (Homo sapiens, UniProt Q9GZR1); assay: SENP6 protease inhibitors, SAR follow-up, biochemical, luminescence, set 2 (AID 588598); format: functional
T3 sequence (Q9GZR1 whole entry): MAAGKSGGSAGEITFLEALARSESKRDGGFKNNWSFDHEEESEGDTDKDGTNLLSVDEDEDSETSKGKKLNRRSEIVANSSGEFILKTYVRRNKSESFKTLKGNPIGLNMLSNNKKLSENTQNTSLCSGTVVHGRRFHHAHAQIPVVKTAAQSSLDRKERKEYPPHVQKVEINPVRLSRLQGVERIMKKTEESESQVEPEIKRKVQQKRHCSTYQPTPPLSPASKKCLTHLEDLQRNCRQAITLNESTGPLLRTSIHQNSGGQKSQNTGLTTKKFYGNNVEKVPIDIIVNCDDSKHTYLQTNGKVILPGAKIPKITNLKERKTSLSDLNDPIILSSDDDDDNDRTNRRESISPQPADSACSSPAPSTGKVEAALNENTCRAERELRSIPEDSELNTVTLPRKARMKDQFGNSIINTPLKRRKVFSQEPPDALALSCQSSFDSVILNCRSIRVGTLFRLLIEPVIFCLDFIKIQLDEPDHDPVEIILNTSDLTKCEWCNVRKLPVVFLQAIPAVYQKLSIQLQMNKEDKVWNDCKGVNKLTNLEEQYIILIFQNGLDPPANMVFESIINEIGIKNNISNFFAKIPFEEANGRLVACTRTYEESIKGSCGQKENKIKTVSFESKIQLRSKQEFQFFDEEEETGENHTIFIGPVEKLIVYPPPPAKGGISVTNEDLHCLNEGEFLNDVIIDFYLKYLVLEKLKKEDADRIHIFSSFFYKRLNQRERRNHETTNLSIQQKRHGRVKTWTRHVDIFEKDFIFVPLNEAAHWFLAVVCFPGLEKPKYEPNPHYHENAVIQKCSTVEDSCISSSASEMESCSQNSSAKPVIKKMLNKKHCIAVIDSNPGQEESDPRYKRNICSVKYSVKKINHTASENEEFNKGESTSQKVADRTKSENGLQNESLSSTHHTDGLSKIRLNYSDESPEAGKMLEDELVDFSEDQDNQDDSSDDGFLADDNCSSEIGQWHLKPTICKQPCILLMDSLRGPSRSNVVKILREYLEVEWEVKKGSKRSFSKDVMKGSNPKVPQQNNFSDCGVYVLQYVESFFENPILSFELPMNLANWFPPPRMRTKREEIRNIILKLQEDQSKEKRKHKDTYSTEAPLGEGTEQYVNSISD

[16] = molecular target: T4, Sentrin-specific protease 7 (Homo sapiens, UniProt Q9BQF6); assay: SENP7 protease inhibitors, SAR follow-up, biochemical, luminescence (AID 504497); format: functional
T4 sequence (Q9BQF6 whole entry): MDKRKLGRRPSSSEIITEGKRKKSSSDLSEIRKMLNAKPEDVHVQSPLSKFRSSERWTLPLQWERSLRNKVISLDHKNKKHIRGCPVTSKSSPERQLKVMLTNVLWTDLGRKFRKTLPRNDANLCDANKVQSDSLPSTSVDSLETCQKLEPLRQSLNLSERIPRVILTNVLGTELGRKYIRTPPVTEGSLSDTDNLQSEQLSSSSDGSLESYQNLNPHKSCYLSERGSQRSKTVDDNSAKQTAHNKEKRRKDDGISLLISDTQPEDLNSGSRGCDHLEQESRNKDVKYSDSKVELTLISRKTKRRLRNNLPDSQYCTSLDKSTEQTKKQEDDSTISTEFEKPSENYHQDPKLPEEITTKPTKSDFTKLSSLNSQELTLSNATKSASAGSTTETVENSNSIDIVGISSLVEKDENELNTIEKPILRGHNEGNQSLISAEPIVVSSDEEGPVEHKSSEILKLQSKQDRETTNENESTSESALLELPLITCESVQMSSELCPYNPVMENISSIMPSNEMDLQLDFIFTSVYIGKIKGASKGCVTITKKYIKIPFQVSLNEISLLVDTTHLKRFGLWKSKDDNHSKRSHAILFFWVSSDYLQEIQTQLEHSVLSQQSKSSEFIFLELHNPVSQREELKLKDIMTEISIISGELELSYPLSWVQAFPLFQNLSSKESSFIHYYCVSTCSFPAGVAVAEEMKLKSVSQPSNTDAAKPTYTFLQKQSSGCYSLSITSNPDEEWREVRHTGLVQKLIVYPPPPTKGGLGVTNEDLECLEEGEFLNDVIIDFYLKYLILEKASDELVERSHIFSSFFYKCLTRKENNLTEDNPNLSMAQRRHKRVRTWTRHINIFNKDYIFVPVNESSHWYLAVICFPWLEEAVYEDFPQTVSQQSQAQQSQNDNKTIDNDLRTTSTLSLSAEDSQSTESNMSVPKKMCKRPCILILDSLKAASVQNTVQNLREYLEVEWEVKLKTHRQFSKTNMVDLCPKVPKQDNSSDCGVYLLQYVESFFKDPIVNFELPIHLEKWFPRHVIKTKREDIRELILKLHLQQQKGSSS

[17] = molecular target: T3, Sentrin-specific protease 6; assay: SAR Analysis of small molecule inhibitors of Sentrin-specific protease 6 (SENP6) using a Luminescent assay. [Related pubchem assays (depositor defined):AID2582, AID2599]; format: functional
Caspase-3 [18] = molecular target: T2, Caspase-3; assay: caspase-3 inhibitors as off-family protease, SAR follow-up, selectivity assay for SENP protease inhibitor project, biochemical, luminescence, set 2 (AID 588599); format: functional
[19] = molecular target: T4, Sentrin-specific protease 7; assay: SENP7 protease inhibitors, SAR follow-up, biochemical, luminescence, set 2 (AID 588600); format: functional
[20] = molecular target: T1, Sentrin-specific protease 8; assay: SENP8 protease inhibitors, SAR follow-up, biochemical, luminescence, set 2 (AID 588601); format: functional

Sequence of Latent membrane protein 1 (P03230 whole entry): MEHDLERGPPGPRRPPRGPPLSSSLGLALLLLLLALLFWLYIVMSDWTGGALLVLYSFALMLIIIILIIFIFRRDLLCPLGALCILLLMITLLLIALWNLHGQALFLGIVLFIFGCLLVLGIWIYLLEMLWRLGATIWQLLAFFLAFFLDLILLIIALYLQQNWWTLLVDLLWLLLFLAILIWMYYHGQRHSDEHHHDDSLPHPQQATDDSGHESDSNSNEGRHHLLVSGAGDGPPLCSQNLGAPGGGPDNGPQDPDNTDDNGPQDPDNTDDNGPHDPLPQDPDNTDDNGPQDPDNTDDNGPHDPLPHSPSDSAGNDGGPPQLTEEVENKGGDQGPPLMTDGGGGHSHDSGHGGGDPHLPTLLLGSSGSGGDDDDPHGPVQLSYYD
Sequence of Beta Lactamase (Q932Y6 whole entry): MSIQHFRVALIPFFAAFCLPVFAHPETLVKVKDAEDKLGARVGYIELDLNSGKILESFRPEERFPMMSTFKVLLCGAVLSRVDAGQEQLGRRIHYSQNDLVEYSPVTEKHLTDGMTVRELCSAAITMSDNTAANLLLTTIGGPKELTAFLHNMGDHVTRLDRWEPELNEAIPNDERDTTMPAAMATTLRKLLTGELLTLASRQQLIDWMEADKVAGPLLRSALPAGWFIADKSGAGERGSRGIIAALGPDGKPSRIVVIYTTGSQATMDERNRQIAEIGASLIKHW

SMILES: CCOC(=O)c1cnc(-n2nc(C)cc2C)nc1NNc1cc(C)nc(-c2ccccc2)n1
- EC50 [1]: 2.8 µM (active)
- CC50 [2]: 7.39 µM (active)
- AC50 [3]: 2.29 µM (active)
- AC50 (HEK293): 3.4 µM (active)
- AC50 [4]: 3.31 µM (active)
- AC50 [5]: 1.74 µM (active)
- EC50 [6]: 0.584 µM (active)
- EC50 [7]: 6.73 µM (active)
- EC50 [8]: 56.7 µM (active)
- AC50 [9]: 60 µM (active)
- AC50 (INS1): 2.14 µM (active)
- EC50 [10]: 0.344 µM (active)
- EC50 (Streptococcus): 1.02 µM (active)
- AC50 [11]: 81.7 µM (active)
- EC50 [12]: 0.355 µM (active)

SMILES: O=C1c2cccc3c(N4CCCCC4)ccc(c23)C(=O)N1c1ccccc1O
- IC50 (CHO): > 49.8 µM (inactive)
- IC50 (Beta Lactamase): 7.63 µM (active)

SMILES: Fc1ccc(/C=C/c2noc(-c3c(F)cccc3F)n2)cc1
- IC50 [13]: > 99 µM (inactive)
- IC50 (Caspase-3 [14]): 34 µM (active)
- IC50 [15]: 4.72 µM (active)
- IC50 [16]: 11 µM (active)
- IC50 [17]: > 99 µM (inactive)
- IC50 (Caspase-3 [18]): 30.8 µM (active)
- IC50 [19]: 5.86 µM (active)
- IC50 [20]: 4.97 µM (active)
